Here are results for 15 compounds from ChEMBL document CHEMBL3992518, “Peptide Macrocycle Inhibitor of Coagulation Factor XII with Subnanomolar Affinity and High Target Selectivity” (J Med Chem, 2017).

A short description of data set [1]: Half life in human citrated plasma at 10 uM by mass spectrophotometric analysis. It is filed as ADME, cell-free.
For a further data set, the species on record is Homo sapiens. Put plainly: Inhibition of human trypsin at 40 uM using fluorogenic substrate Z-Gly-Gly-Arg-AMC.
Another data set concerns the target Plasma kallikrein (Homo sapiens, UniProt P03952). Put plainly: Inhibition of human plasma kallikrein at 40 uM using fluorogenic substrate Z-Phe-Arg-AMC.
Data set [2] relates to Plasma. Description: Anticoagulant activity in human plasma assessed as concentration required to double activated partial thromboplastin time by coagulation analyser. It is filed as functional.
The subject of data set [3] is Plasma. Put plainly: Anticoagulant activity in human plasma assessed as change in prothrombin time up to 40 uM by coagulation analyser. It is filed as functional, cell-free.
For another data set, the target named is T1, Coagulation factor XII (Homo sapiens, UniProt P00748).
T1 sequence (P00748 whole entry): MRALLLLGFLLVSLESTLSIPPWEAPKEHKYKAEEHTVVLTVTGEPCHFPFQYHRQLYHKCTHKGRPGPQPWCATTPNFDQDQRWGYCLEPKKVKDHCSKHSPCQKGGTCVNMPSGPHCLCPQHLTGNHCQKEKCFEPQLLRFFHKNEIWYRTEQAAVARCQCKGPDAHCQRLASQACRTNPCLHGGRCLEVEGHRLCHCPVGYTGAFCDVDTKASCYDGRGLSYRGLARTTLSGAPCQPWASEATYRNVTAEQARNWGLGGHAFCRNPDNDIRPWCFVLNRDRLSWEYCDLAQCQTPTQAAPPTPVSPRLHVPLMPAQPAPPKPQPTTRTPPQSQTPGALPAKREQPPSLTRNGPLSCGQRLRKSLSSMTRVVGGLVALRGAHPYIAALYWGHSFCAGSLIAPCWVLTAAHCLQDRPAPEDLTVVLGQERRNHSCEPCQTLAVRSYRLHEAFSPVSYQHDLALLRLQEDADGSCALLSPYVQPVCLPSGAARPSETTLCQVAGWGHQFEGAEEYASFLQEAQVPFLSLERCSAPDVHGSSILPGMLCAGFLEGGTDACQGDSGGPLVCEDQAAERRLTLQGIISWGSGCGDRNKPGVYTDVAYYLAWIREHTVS
Description: Inhibition of human beta factor 12a using fluorogenic substrate Boc-Gln-Gly-Arg-AMC preincubated for 10 mins followed by addition of substrate measured every min for 30 mins.

Calls of active or inactive are those of the source. The calls are words filed in the database; no cut-off is given here. *1 amine or outer side, *2 acyl side, *3 side chain or, on linkers, in order; H or OH if unused. Where a SMILES comes first, the peptide text is derived from it. Bridges are numbered along the chain shown (N, C = ends). TATA = O=C(CC[*:1])N1CN(C(=O)CC[*:2])CN(C(=O)CC[*:3])C1

Sequence of Plasma kallikrein (P03952 20-390 limits assumed): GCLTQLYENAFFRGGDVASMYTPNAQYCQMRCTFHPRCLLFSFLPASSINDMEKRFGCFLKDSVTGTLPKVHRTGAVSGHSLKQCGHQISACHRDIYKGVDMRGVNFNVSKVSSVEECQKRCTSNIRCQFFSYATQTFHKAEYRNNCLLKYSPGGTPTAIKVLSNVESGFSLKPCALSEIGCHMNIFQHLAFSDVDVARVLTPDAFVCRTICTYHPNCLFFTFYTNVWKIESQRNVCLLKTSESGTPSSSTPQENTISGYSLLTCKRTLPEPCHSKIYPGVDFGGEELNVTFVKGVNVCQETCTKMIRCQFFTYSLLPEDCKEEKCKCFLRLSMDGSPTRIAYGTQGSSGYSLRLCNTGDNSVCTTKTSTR
Sequence of Plasma kallikrein (P03952 391-638 limits assumed): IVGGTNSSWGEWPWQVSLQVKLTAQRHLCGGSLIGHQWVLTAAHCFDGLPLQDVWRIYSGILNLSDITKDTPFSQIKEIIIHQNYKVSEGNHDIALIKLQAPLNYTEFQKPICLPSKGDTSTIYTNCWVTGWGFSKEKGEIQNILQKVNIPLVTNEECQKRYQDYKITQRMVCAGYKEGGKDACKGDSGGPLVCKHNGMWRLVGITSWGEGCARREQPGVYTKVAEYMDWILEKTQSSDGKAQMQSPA

`CC(C)C[C@@H]1NC(=O)[C@H](CCC(N)=O)NC(=O)[C@H](CCCNC(=N)N)NC(=O)[C@@H]2CSCCC(=O)N3CN(CN(C3)C(=O)CCSC[C@H](NC(=O)[C@@H](N)CCCNC(=N)N)C(=O)N[C@@H](Cc3ccccc3)C(=O)N[C@@H](CCCNC(=N)N)C(=O)N[C@@H](CC(C)C)C(=O)N3CCC[C@H]3C(=O)N2)C(=O)CCSC[C@@H](C(=O)N[C@@H](CCCNC(=N)N)C(=O)O)NC(=O)[C@H](CCCNC(=N)N)NC1=O` showed a half-life at 10 µM in data set [1] of 4 h. Besides, the inhibition entry in the data set filed under Homo sapiens was “Active”. Further, the inhibition entry at Plasma kallikrein was “Active”. Moreover, in the data set on Plasma [2], the 2aPTT came to 2.9 µM and the Activity result was “Dose-dependent effect”. The result in the data set with Plasma [3] was inactive.
In turn, `CC(C)C[C@@H]1NC(=O)[C@H](CCC(N)=O)NC(=O)[C@H](CCCNC(=N)N)NC(=O)[C@@H]2CSCCC(=O)N3CN(CN(C3)C(=O)CCSC[C@H](NC(=O)[C@@H](N)CCCNC(=N)N)C(=O)N[C@@H](Cc3ccc(F)cc3)C(=O)N[C@@H](CCCNC(=N)N)C(=O)N[C@@H](CC(C)C)C(=O)N3CCC[C@H]3C(=O)N2)C(=O)CCSC[C@@H](C(=O)N[C@@H](CCCNC(=N)N)C(=O)O)NC(=O)[C@H](CCCNC(=N)N)NC1=O` had an inhibition constant Ki on Coagulation factor XII of 0.84 nM. Besides, in the data set filed under Homo sapiens, the inhibition entry is “Active”. For the same compound, on Plasma kallikrein, the inhibition entry was “Active”. In the data set with Plasma [2], the 2aPTT was found to be 1.6 µM and the Activity result is “Dose-dependent effect”. The result in the data set on Plasma [3] was inactive.
In turn, `CC(C)C[C@@H]1NC(=O)[C@H](CCC(N)=O)NC(=O)[C@H](CCCNC(=N)N)NC(=O)[C@@H]2CSCCC(=O)N3CN(CN(C3)C(=O)CCSC[C@@H](C(=O)N[C@@H](CCCNC(=N)N)C(=O)O)NC(=O)[C@H](CCCNC(=N)N)NC1=O)C(=O)CCSC[C@H](NC(=O)[C@H](N)Cc1ccc(NC(=N)N)cc1)C(=O)N[C@@H](Cc1ccccc1)C(=O)N[C@@H](CCCNC(=N)N)C(=O)N[C@@H](CC(C)C)C(=O)N1CCC[C@H]1C(=O)N2` returned an inhibition constant Ki on Coagulation factor XII of 15 nM. In addition, the half-life at 10 µM in data set [1] is 13 h.
With `CC(C)C[C@@H]1NC(=O)[C@H](CCC(N)=O)NC(=O)[C@H](CCCNC(=N)N)NC(=O)[C@@H]2CSCCC(=O)N3CN(CN(C3)C(=O)CCSC[C@@H](C(=O)N[C@@H](CCCNC(=N)N)C(=O)O)NC(=O)[C@H](CCCNC(=N)N)NC1=O)C(=O)CCSC[C@H](NC(=O)[C@H](N)CCNC(=N)N)C(=O)N[C@@H](Cc1ccccc1)C(=O)N[C@@H](CCCNC(=N)N)C(=O)N[C@@H](CC(C)C)C(=O)N1CCC[C@H]1C(=O)N2`, the Ki at Coagulation factor XII is 14 nM. The compound further had a half-life at 10 µM in data set [1] of 22 h.
`CC(C)C[C@@H]1NC(=O)[C@H](CCC(N)=O)NC(=O)[C@H](CCCNC(=N)N)NC(=O)[C@@H]2CSCCC(=O)N3CN(CN(C3)C(=O)CCSC[C@@H](C(=O)N[C@@H](CCCNC(=N)N)C(=O)O)NC(=O)[C@H](CCCNC(=N)N)NC1=O)C(=O)CCSC[C@H](NC(=O)[C@H](N)CCCCNC(=N)N)C(=O)N[C@@H](Cc1ccccc1)C(=O)N[C@@H](CCCNC(=N)N)C(=O)N[C@@H](CC(C)C)C(=O)N1CCC[C@H]1C(=O)N2` came in with a Ki at Coagulation factor XII of 8.8 nM. Moreover, the half-life at 10 µM in data set [1] was 5 h.
`CC[C@H](C)[C@@H]1NC(=O)[C@H](CCC(N)=O)NC(=O)[C@H](CCCNC(=N)N)NC(=O)[C@@H]2CSCCC(=O)N3CN(CN(C3)C(=O)CCSC[C@H](NC(=O)[C@@H](N)CCCNC(=N)N)C(=O)N[C@@H](Cc3ccccc3)C(=O)N[C@@H](CCCNC(=N)N)C(=O)N[C@@H](CC(C)C)C(=O)N3CCC[C@H]3C(=O)N2)C(=O)CCSC[C@@H](C(=O)N[C@@H](CCCNC(=N)N)C(=O)N[C@@H](Cc2c[nH]c3ccccc23)C(=O)O)NC(=O)[C@H](CCCNC(=N)N)NC1=O` (H-RCFRLPCRQIRCRW-OH; linker 2-7-12 via TATA) registered a Ki at Coagulation factor XII of 78 nM.
At Coagulation factor XII, `CC(C)C[C@@H]1NC(=O)[C@H](CCC(N)=O)NC(=O)[C@H](CCCNC(=N)N)NC(=O)[C@@H]2CSCCC(=O)N3CN(CN(C3)C(=O)CCSC[C@H](NC(=O)[C@@H](N)CCCNC(=N)N)C(=O)N[C@@H](Cc3ccccc3)C(=O)N[C@@H](CCCNC(=N)N)C(=O)N[C@@H](CC(C)C)C(=O)N[C@@H](C(C)C)C(=O)N2)C(=O)CCSC[C@@H](C(=O)N[C@@H](CCCNC(=N)N)C(=O)N[C@@H](Cc2c[nH]c3ccccc23)C(=O)O)NC(=O)[C@H](CCCNC(=N)N)NC1=O` (H-RCFRLVCRQLRCRW-OH; linker 2-7-12 via TATA) had a Ki of 47 nM.
The compound `CC(C)C[C@@H]1NC(=O)[C@H](CCCNC(=N)N)NC(=O)[C@H](Cc2ccccc2)NC(=O)[C@@H](NC(=O)[C@@H](N)CCCNC(=N)N)CSCCC(=O)N2CN3CN(C2)C(=O)CCSC[C@H](NC(=O)[C@@H]2CCCN2C1=O)C(=O)N[C@@H](CCCNC(=N)N)C(=O)N[C@@H](CCC(N)=O)C(=O)N[C@@H](C(C)C)C(=O)N[C@@H](CCCNC(=N)N)C(=O)N[C@H](C(=O)N[C@@H](CCCNC(=N)N)C(=O)N[C@@H](Cc1c[nH]c2ccccc12)C(=O)O)CSCCC3=O` (H-RCFRLPCRQVRCRW-OH; linker 2-7-12 via TATA) showed an inhibitory constant (Ki) on Coagulation factor XII of 326 nM.
`CC(C)C[C@@H]1NC(=O)[C@H](CCC(N)=O)NC(=O)[C@H](CCCNC(=N)N)NC(=O)[C@@H]2CSCCC(=O)N3CN(CN(C3)C(=O)CCSC[C@H](NC(=O)[C@@H](N)CCCNC(=N)N)C(=O)N[C@@H](Cc3ccccc3)C(=O)N[C@@H](CCCNC(=N)N)C(=O)N[C@@H](CC(C)C)C(=O)N[C@@H](CC(C)C)C(=O)N2)C(=O)CCSC[C@@H](C(=O)N[C@@H](CCCNC(=N)N)C(=O)N[C@@H](Cc2c[nH]c3ccccc23)C(=O)O)NC(=O)[C@H](CCCNC(=N)N)NC1=O` (H-RCFRLLCRQLRCRW-OH; linker 2-7-12 via TATA): the inhibitory constant (Ki) at Coagulation factor XII came to 13 nM.
Still for that read-out and setting: in the case of `CC(C)C[C@@H]1NC(=O)[C@H](CCC(N)=O)NC(=O)[C@H](CCCNC(=N)N)NC(=O)[C@@H]2CSCCC(=O)N3CN(CN(C3)C(=O)CCSC[C@H](NC(=O)[C@@H](N)CCCNC(=N)N)C(=O)N[C@@H](C(C)C)C(=O)N[C@@H](CCCNC(=N)N)C(=O)N[C@@H](CC(C)C)C(=O)N3CCC[C@H]3C(=O)N2)C(=O)CCSC[C@@H](C(=O)N[C@@H](CCCNC(=N)N)C(=O)N[C@@H](Cc2c[nH]c3ccccc23)C(=O)O)NC(=O)[C@H](CCCNC(=N)N)NC1=O` (H-RCVRLPCRQLRCRW-OH; linker 2-7-12 via TATA) it was 160 nM.
For the compound `CC(C)C[C@@H]1NC(=O)[C@H](CCC(N)=O)NC(=O)[C@H](CCCNC(=N)N)NC(=O)[C@@H]2CSCCC(=O)N3CN(CN(C3)C(=O)CCSC[C@H](NC(=O)[C@@H](N)CCCNC(=N)N)C(=O)N[C@@H](Cc3cccc4ccccc34)C(=O)N[C@@H](CCCNC(=N)N)C(=O)N[C@@H](CC(C)C)C(=O)N3CCC[C@H]3C(=O)N2)C(=O)CCSC[C@@H](C(=O)N[C@@H](CCCNC(=N)N)C(=O)N[C@@H](Cc2c[nH]c3ccccc23)C(=O)O)NC(=O)[C@H](CCCNC(=N)N)NC1=O`, on Coagulation factor XII, the affinity, expressed as Ki, was 10 nM.
`CC(C)C[C@@H]1NC(=O)[C@H](CCC(N)=O)NC(=O)[C@H](CCCNC(=N)N)NC(=O)[C@@H]2CSCCC(=O)N3CN(CN(C3)C(=O)CCSC[C@H](N)C(=O)N[C@@H](Cc3ccccc3)C(=O)N[C@@H](CCCNC(=N)N)C(=O)N[C@@H](CC(C)C)C(=O)N3CCC[C@H]3C(=O)N2)C(=O)CCSC[C@@H](C(=O)N[C@@H](CCCNC(=N)N)C(=O)O)NC(=O)[C@H](CCCNC(=N)N)NC1=O` (H-CFRLPCRQLRCR-OH; linker 1-6-11 via TATA) yielded an inhibition constant (Ki) at Coagulation factor XII of 330 nM.
Still for that read-out and setting: in the case of `Cc1ccc(C[C@@H]2NC(=O)[C@@H](NC(=O)[C@@H](N)CCCNC(=N)N)CSCCC(=O)N3CN4CN(C3)C(=O)CCSC[C@H](NC(=O)[C@@H]3CCCN3C(=O)[C@H](CC(C)C)NC(=O)[C@H](CCCNC(=N)N)NC2=O)C(=O)N[C@@H](CCCNC(=N)N)C(=O)N[C@@H](CCC(N)=O)C(=O)N[C@@H](CC(C)C)C(=O)N[C@@H](CCCNC(=N)N)C(=O)N[C@H](C(=O)N[C@@H](CCCNC(=N)N)C(=O)N[C@@H](Cc2c[nH]c3ccccc23)C(=O)O)CSCCC4=O)cc1` it was 39 nM.
For `CC(C)C[C@@H]1NC(=O)[C@H](CCC(N)=O)NC(=O)[C@H](CCCNC(=N)N)NC(=O)[C@@H]2CSCCC(=O)N3CN(CN(C3)C(=O)CCSC[C@@H](C(=O)N[C@@H](CCCNC(=N)N)C(=O)O)NC(=O)[C@H](CCCNC(=N)N)NC1=O)C(=O)CCSC[C@H](NC(=O)[C@H](N)CCCCCN)C(=O)N[C@@H](Cc1ccccc1)C(=O)N[C@@H](CCCNC(=N)N)C(=O)N[C@@H](CC(C)C)C(=O)N1CCC[C@H]1C(=O)N2`, the inhibition constant (Ki) at Coagulation factor XII was found to be 6.5 nM. In data set [1], this compound had a half-life at 10 µM of 2 h.
Compound `CC(C)CC[C@@H]1NC(=O)[C@H](CCC(N)=O)NC(=O)[C@H](CCCNC(=N)N)NC(=O)[C@@H]2CSCCC(=O)N3CN(CN(C3)C(=O)CCSC[C@H](NC(=O)[C@@H](N)CCCNC(=N)N)C(=O)N[C@@H](Cc3ccccc3)C(=O)N[C@@H](CCCNC(=N)N)C(=O)N[C@@H](CC(C)C)C(=O)N3CCC[C@H]3C(=O)N2)C(=O)CCSC[C@@H](C(=O)N[C@@H](CCCNC(=N)N)C(=O)N[C@@H](Cc2c[nH]c3ccccc23)C(=O)O)NC(=O)[C@H](CCCNC(=N)N)NC1=O` gave an inhibitory constant (Ki) on Coagulation factor XII of 29.4 nM.
